According to US9586963B2 (GENFIT, priority 2011, dated 2017):
pEC50: −log10 of the molar value.

Legend:
Rev-Erb alpha = biological target: T1, Rev-Erb alpha (Homo sapiens, UniProt P20393); assay: M2H (mammalian two-hybrid) cellular activation assay of Rev-Erb alpha; format: cell-based; conditions: M2H assay, HEK293 cells; for pEC50: Gal4-Rev-Erb alpha / VP16-NCoR, luciferase reporter; for Emax: relative to DMSO, at the tested dose, read-out: TOP activation
T1 sequence (P20393 284-614 limits assumed): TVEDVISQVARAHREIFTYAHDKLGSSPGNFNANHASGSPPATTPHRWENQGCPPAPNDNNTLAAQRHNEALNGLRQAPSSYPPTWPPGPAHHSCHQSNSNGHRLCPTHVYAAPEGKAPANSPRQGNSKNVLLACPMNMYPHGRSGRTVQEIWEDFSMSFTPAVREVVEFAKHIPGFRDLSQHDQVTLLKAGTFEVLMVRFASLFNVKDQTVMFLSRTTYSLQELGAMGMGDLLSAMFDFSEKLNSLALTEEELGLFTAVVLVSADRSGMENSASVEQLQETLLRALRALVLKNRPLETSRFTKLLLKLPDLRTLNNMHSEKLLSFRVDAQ
Outline: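 Six-point dose-response, 18 h, 37 °C, serum-free, in HEK293 cells carrying a Gal4-RE luciferase reporter with Gal4-Rev-Erb alpha or beta plus VP16-NCoR (corepressor interaction readout). EC50 and TOP activation (%) derived from luminescence across four experiments.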

Question: With `Oc1cccc(-c2ccccc2Oc2ccc3nnc(Cl)n3n2)c1` [Cpd.4-21, 6-(3′-hydroxy-biphenyl-2-yloxy)-3-chloro-[1,2,4]triazolo[4,3-b]pyridazine] as the compound, how does the pEC50 (Rev-Erb alpha) read?
Answer: Its pEC50 is 6.00 to 7.00.

Question: And the melting point?
Answer: The melting point was 203.7 °C.

Question: With `N#Cc1ccc(Oc2ccc3nnc(Cl)n3n2)c(-c2ccccc2)c1` [Cpd.4-154, 3-chloro-6-(5-cyanobiphenyl-2-yloxy)-[1,2,4]triazolo[4,3-b]pyridazine] as the compound, how does the pEC50 (Rev-Erb alpha) read?
Answer: The pEC50 was 5.22 to 6.00.

Question: And the melting point?
Answer: The melting point was 208 to 209 °C.

Question: With `Clc1ccc(Oc2ccc3nnc(Cl)n3n2)c(Cc2ccccc2)c1` [Cpd.4-146, 6-(2-benzyl-4-chloro-phenoxy)-3-chloro-[1,2,4]triazolo[4,3-b]pyridazine] as the compound, how does the pEC50 (Rev-Erb alpha) read?
Answer: Its pEC50 is 6.00 to 7.00.

Question: And the melting point?
Answer: The melting point was 161 to 162 °C.

Question: Which results are given for `COc1ncc(-c2cc(Cl)ccc2Oc2cc(C)c3nnc(Cl)n3n2)cn1` [Cpd.5-55, 3-chloro-6-(4-chloro-2-(2-methoxypyrimidin-5-yl)phenoxy)-8-methyl-[1,2,4]triazolo[4,3-b]pyridazine]?
Answer: pEC50 (Rev-Erb alpha): 5.22 to 6.00; melting point: 170 to 172 °C

Question: With `COc1nccc(C)c1-c1ccc(C(F)(F)F)cc1Oc1nn2c(Cl)nnc2cc1C` [Cpd.5-40, 3-chloro-7-methyl-6-((2-(2-methoxy-4-methylpyridin-3-yl))-5-(trifluoromethyl)phenoxy)-[1,2,4]triazolo[4,3-b]pyridazine] as the compound, how does the pEC50 (Rev-Erb alpha) read?
Answer: Its pEC50 is 5.22 to 6.00.

Question: What about the melting point of the same compound?
Answer: Its melting point is 161 to 162 °C.

Question: With `Clc1ccc(-c2ccccc2Oc2ccc3nnc(Cl)n3n2)cc1` [Cpd.4-117, 3-chloro-6-(4′-chlorobiphenyl-2-yloxy)-[1,2,4]triazolo[4,3-b]pyridazine] as the compound, how does the pEC50 (Rev-Erb alpha) read?
Answer: The pEC50 was 6.00 to 7.00.

Question: And the melting point?
Answer: Its melting point is 173 °C.

Question: What does the source list for `Cc1ccc(-c2ccc(C(F)(F)F)cc2Oc2ccc3nnc(Cl)n3n2)cn1` [Cpd.4-196, 3-chloro-6-(2-(6-methylpyridin-3-yl)-5-(trifluoromethyl)phenoxy)-[1,2,4]triazolo[4,3-b]pyridazine]?
Answer: pEC50 (Rev-Erb alpha): 5.22 to 6.00; melting point: 212 to 214 °C

Question: What does the source list for `Oc1cccc(-c2cc(F)ccc2Oc2ccc3nnc(Cl)n3n2)c1` [Cpd.4-77, 3-chloro-6-(5-fluoro-3′-hydroxy-biphenyl-2-yloxy)-[1,2,4]triazolo[4,3-b]pyridazine]?
Answer: pEC50 (Rev-Erb alpha): 5.22 to 6.00; melting point: 241.3 to 244.5 °C

Question: Which results are given for `Fc1ccc(-c2cc(F)ccc2Oc2ccc3nnc(Cl)n3n2)c(F)c1` [Cpd.4-188, 3-chloro-6-(5,2′,4′-trifluorobiphenyl-2-yloxy)-[1,2,4]triazolo[4,3-b]pyridazine]?
Answer: pEC50 (Rev-Erb alpha): 6.00 to 7.00; melting point: 143.6 °C

Question: With `CC(C)CCNc1ccc(-c2ccccc2)c(Oc2ccc3nnc(Cl)n3n2)c1` [Cpd.4-175, 3-chloro-6-(4-((3-methylbutyl)amino)biphenyl-2-yloxy)-[1,2,4]triazolo[4,3-b]pyridazine] as the compound, how does the pEC50 (Rev-Erb alpha) read?
Answer: Its pEC50 is 6.00 to 7.00.

Question: And the melting point?
Answer: Its melting point is 145 to 150 °C.

Question: What does the source list for `Cc1cc2nnc(C(F)(F)F)n2nc1Oc1cc(C(F)(F)F)ccc1-c1cncnc1` [Cpd.5-61, 7-methyl-6-(2-(pyrimidin-5-yl)-5-(trifluoromethyl)phenoxy)-3-(trifluoromethyl)-[1,2,4]triazolo[4,3-b]pyridazine]?
Answer: pEC50 (Rev-Erb alpha): 5.22 to 6.00; melting point: 174 to 179 °C

Question: With `Fc1ccc(-c2cccc(Oc3ccc4nnc(Cl)n4n3)c2)cc1` [Cpd.3-9, 6-(4′-fluoro-biphenyl-3-yloxy)-3-chloro-[1,2,4]triazolo[4,3-b]pyridazine] as the compound, how does the pEC50 (Rev-Erb alpha) read?
Answer: Its pEC50 is 6.00 to 7.00.

Question: What about the melting point of the same compound?
Answer: Its melting point is 88 °C.

Question: Which results are given for `Fc1ccccc1-c1cccc(Oc2ccc3nnc(Cl)n3n2)c1` [Cpd.3-10, 6-(2′-fluoro-biphenyl-3-yloxy)-3-chloro-[1,2,4]triazolo[4,3-b]pyridazine]?
Answer: pEC50 (Rev-Erb alpha): 6.00 to 7.00; melting point: 128.6 °C

Question: Which results are given for `Fc1ccc(Oc2ccc3nnc(Cl)n3n2)c(-c2cccc(C(F)(F)F)c2)c1` [Cpd.4-148, 3-chloro-6-(5-fluoro-3′-(trifluoromethyl)biphenyl-2-yloxy)-[1,2,4]triazolo[4,3-b]pyridazine]?
Answer: pEC50 (Rev-Erb alpha): 5.22 to 6.00; melting point: 94.5 to 96.1 °C

Question: With `Clc1ccc(-c2cccc(Oc3ccc4nnc(Cl)n4n3)c2)cc1` [Cpd.3-12, 6-(4′-chloro-biphenyl-3-yloxy)-3-chloro-[1,2,4]triazolo[4,3-b]pyridazine] as the compound, how does the pEC50 (Rev-Erb alpha) read?
Answer: The pEC50 was 5.22 to 6.00.

Question: What about the melting point of the same compound?
Answer: Its melting point is 128 °C.

Question: With `COc1nccc(C)c1-c1ccc(C(F)(F)F)cc1Oc1ccc2nnc(Cl)n2n1` [Cpd.4-130, 3-chloro-6-((2-(2-methoxy-4-methylpyridin-3-yl))-5-(trifluoromethyl)phenoxy)-[1,2,4]triazolo[4,3-b]pyridazine] as the compound, how does the pEC50 (Rev-Erb alpha) read?
Answer: Its pEC50 is 5.22 to 6.00.

Question: What about the melting point of the same compound?
Answer: The melting point was 129 to 132 °C.

Question: Which results are given for `Clc1ccccc1-c1cccc(Oc2ccc3nnc(Cl)n3n2)c1` [Cpd.3-11, 6-(2′-chloro-biphenyl-3-yloxy)-3-chloro-[1,2,4]triazolo[4,3-b]pyridazine]?
Answer: pEC50 (Rev-Erb alpha): 5.22 to 6.00; melting point: 82.4 °C

Question: With `COc1ccc(Oc2ccc3nnc(Cl)n3n2)c(-c2ccccc2)c1` [Cpd.4-14, 6-(5-methoxybiphenyl-2-yloxy)-3-chloro-[1,2,4]triazolo[4,3-b]pyridazine] as the compound, how does the pEC50 (Rev-Erb alpha) read?
Answer: Its pEC50 is 6.00 to 7.00.

Question: What about the melting point of the same compound?
Answer: Its melting point is 164.6 °C.

Question: With `CC(C)CNc1ccc(Oc2ccc3nnc(Cl)n3n2)c(-c2ccccc2)c1` [Cpd.4-67, 3-chloro-6-(5-isobutylamino-biphenyl-2-yloxy)-[1,2,4]triazolo[4,3-b]pyridazine] as the compound, how does the pEC50 (Rev-Erb alpha) read?
Answer: The pEC50 was over 7.00.

Question: And the melting point?
Answer: The melting point was 62 to 67 °C.

Question: What does the source list for `Fc1ccccc1-c1ccccc1Oc1ccc2nnc(Cl)n2n1` [Cpd.4-17, 6-(2′-fluoro-biphenyl-2-yloxy)-3-chloro-[1,2,4]triazolo[4,3-b]pyridazine]?
Answer: pEC50 (Rev-Erb alpha): 6.00 to 7.00; melting point: 95.9 °C

Question: With `Cc1cc(Oc2cc(C(F)(F)F)ccc2-c2cncnc2)nn2cnnc12` [Cpd.5-46, 8-methyl-6-(2-(pyrimidin-5-yl)-5-(trifluoromethyl)phenoxy)-[1,2,4]triazolo[4,3-b]pyridazine] as the compound, how does the pEC50 (Rev-Erb alpha) read?
Answer: The pEC50 was under 5.22.

Question: What about the Emax (Rev-Erb alpha) of the same compound?
Answer: The Emax was over 130%.

Question: And the melting point?
Answer: Its melting point is 230 to 234 °C.

Question: With `Oc1cccc(-c2cc(F)c(F)cc2Oc2ccc3nnc(C(F)(F)F)n3n2)c1` [Cpd.4-151, 3-(trifluoromethyl)-6-(4,5-difluoro-3′-hydroxybiphenyl-2-yloxy)-[1,2,4]triazolo[4,3-b]pyridazine] as the compound, how does the pEC50 (Rev-Erb alpha) read?
Answer: The pEC50 was 5.22 to 6.00.

Question: What about the melting point of the same compound?
Answer: The melting point was 193 to 195 °C.

Question: With `Cc1cc(Oc2ccc(Cl)cc2-c2cncnc2)nn2c(Cl)nnc12` [Cpd.5-58, 3-chloro-6-(4-chloro-2-(pyrimidin-5-yl)phenoxy)-8-methyl-[1,2,4]triazolo[4,3-b]pyridazine] as the compound, how does the pEC50 (Rev-Erb alpha) read?
Answer: The pEC50 was 5.22 to 6.00.

Question: What about the melting point of the same compound?
Answer: The melting point was 208 to 210 °C.

Question: With `CCN(CC)Cc1ccc(-c2ccccc2)c(Oc2ccc3nnc(Cl)n3n2)c1` [Cpd.4-184, 3-chloro-6-(4-diethylaminomethylbiphenyl-2-yloxy)-[1,2,4]triazolo[4,3-b]pyridazine] as the compound, how does the pEC50 (Rev-Erb alpha) read?
Answer: Its pEC50 is 5.22 to 6.00.

Question: What about the melting point of the same compound?
Answer: The melting point was 110 to 112 °C.

Question: What does the source list for `COc1ccc(-c2ccc(F)cc2)c(Oc2ccc3nnc(Cl)n3n2)c1` [Cpd.4-34, 6-(4′-fluoro-4-methoxy-biphenyl-2-yloxy)-3-chloro-[1,2,4]triazolo[4,3-b]pyridazine]?
Answer: pEC50 (Rev-Erb alpha): 6.00 to 7.00; melting point: 171.7 °C

Question: With `Cc1cc2nnc(C(F)(F)F)n2nc1Oc1cc(C(F)(F)F)ccc1-c1cccnc1` [Cpd.5-33, 7-methyl-6-(2-(pyridin-3-yl)-5-(trifluoromethyl)phenoxy)-3-(trifluoromethyl)-[1,2,4]triazolo[4,3-b]pyridazine] as the compound, how does the pEC50 (Rev-Erb alpha) read?
Answer: The pEC50 was 5.22 to 6.00.

Question: What about the melting point of the same compound?
Answer: The melting point was 173 to 175 °C.

Question: With `Cc1ncc(-c2ccc(C(F)(F)F)cc2Oc2cc(C)c3nnc(Cl)n3n2)cn1` [Cpd.5-37, 3-chloro-8-methyl-6-((2-(2-methylpyrimidin-5-yl))-5-(trifluoromethyl)phenoxy)-[1,2,4]triazolo[4,3-b]pyridazine] as the compound, how does the pEC50 (Rev-Erb alpha) read?
Answer: Its pEC50 is 5.22 to 6.00.

Question: And the melting point?
Answer: Its melting point is 200 to 202 °C.

Question: What does the source list for `Fc1ccc(-c2ccccc2Oc2ccc3nnc(Cl)n3n2)cc1F` [Cpd.4-20, 6-(3′,4′-difluoro-biphenyl-2-yloxy)-3-chloro-[1,2,4]triazolo[4,3-b]pyridazine]?
Answer: pEC50 (Rev-Erb alpha): 6.00 to 7.00; melting point: 129.3 °C

Question: With `COc1ccc(-c2cccc(C(F)(F)F)c2)c(Oc2ccc3nnc(Cl)n3n2)c1` [Cpd.4-113, 3-chloro-6-{[4-methoxy-3′-(trifluoromethyl)biphenyl-2-yl]oxy}-[1,2,4]triazolo[4,3-b]pyridazine] as the compound, how does the pEC50 (Rev-Erb alpha) read?
Answer: Its pEC50 is 6.00 to 7.00.

Question: And the melting point?
Answer: Its melting point is 111.6 °C.

Question: What does the source list for `Clc1ccc(Oc2ccc3nnc(Cl)n3n2)c(-c2cncnc2)c1` [Cpd.4-194, 3-chloro-6-(4-chloro-2-(pyrimidin-5-yl)phenoxy)-[1,2,4]triazolo[4,3-b]pyridazine]?
Answer: pEC50 (Rev-Erb alpha): < 5.22; Emax (Rev-Erb alpha): > 130%; melting point: 152 to 155 °C

Question: With `FC(F)(F)c1ccc(CN2CCOCC2)c(Oc2ccc3nnc(Cl)n3n2)c1` [Cpd.4-122, 3-chloro-6-(2-(morpholinomethyl)-5-(trifluoromethyl)phenoxy)-[1,2,4]triazolo[4,3-b]pyridazine] as the compound, how does the pEC50 (Rev-Erb alpha) read?
Answer: Its pEC50 is 5.22 to 6.00.

Question: What about the melting point of the same compound?
Answer: Its melting point is 55 to 58 °C.

Question: With `COc1ncc(-c2cc(Cl)ccc2Oc2ccc3nnc(Cl)n3n2)cn1` [Cpd.4-195, 3-chloro-6-(4-chloro-2-(2-methoxypyrimidin-5-yl)phenoxy)-[1,2,4]triazolo[4,3-b]pyridazine] as the compound, how does the pEC50 (Rev-Erb alpha) read?
Answer: The pEC50 was under 5.22.

Question: And the Emax (Rev-Erb alpha)?
Answer: Its Emax is over 130%.

Question: And the melting point?
Answer: Its melting point is 210 to 211 °C.

Question: What does the source list for `Clc1nnc2ccc(Oc3cc(NCCC4CCCCC4)ccc3-c3ccccc3)nn12` [Cpd.4-185, 3-chloro-6-(4-((cyclohexylethyl)amino)biphenyl-2-yloxy)-[1,2,4]triazolo[4,3-b]pyridazine]?
Answer: pEC50 (Rev-Erb alpha): 6.00 to 7.00; melting point: 154 to 159 °C
